# Experimental data reported in US20060246492A1, “Method for predicting responsiveness to drugs” (The General Hospital Corporation, priority 2005, published 2006).
# Entries after “also recorded” stand apart in the source; their conditions may differ.
# Tests used:
# [1] = tested on: NCI-H1650; test: Drug-sensitivity screen of 40 human cancer cell lines (DNA staining, 3 days); format: cell-based; conditions: NCI-H1650 (EGFR del E746-A750), tested 100 nM to 10 μM
# Procedure: (§1) Cells were cultured and analyzed in triplicate within microtiter plates. Cell numbers were quantitated by DNA staining, 3 days after addition of various concentrations of drugs and expressed as a fraction of matched untreated cultures. For each drug concentration, cell lines with relative drug sensitivity (<50% of untreated control growth) are shown in darkest staining, intermediate sensitivity (50-75%) in […], and drug insensitivity (>75%) in intermediate shading.
# (§2) Cellular Proliferation and Viability Assays. […] For quantitation of cellular proliferation, cells were fixed at appropriate time points in 4% paraformaldehyde, and all plates were stained simultaneously by using the fluorescent nucleic acid stain SYTO60 (Molecular Probes) at 1:8,000 dilution in PBS. Quantitation was done by measuring the […] at 700 nm by using the Odyssey Imaging System (LI-COR, Lincoln, Nebr.). The relative cell number was obtained by normalizing treated samples to matched untreated specimens. For quantitation of cell viability, cultures were stained after 4 days by using the MTT assay. Briefly, 10 μl of 5 mg/ml MTT (Thiazolyl blue) solution was added to each well and incubated for 2 h at 37° C. For adherent cell lines, the media was removed from each well, and the resultant MTT formazan was solubilized in 100 μl of DMSO. For nonadherent cell lines, the MTT formazan was solubilized by direct addition of 100 μl of acidic isopropanol (0.1 N HCl) to each well. The results were quantitated spectrophotometrically by using a test wavelength of 570 nm and a reference wavelength of 630 nm.
# [2] = tested on: NCI-H1975; test: as above; format: cell-based; conditions: NCI-H1975 (EGFR L858R and T790M)
# Procedure: as §1, §2
# [3] = tested on: AGS; test: MTT viability assay, gastric cancer cell line; format: cell-based; conditions: Homo sapiens, 96 h
# Procedure: (§3) Cells were plated in 96-well plate in medium containing 4% fetal bovine serum at approximately 4000 cells/well. […] Cell viability was measured 96 h later using the MTT assay. Briefly, 10 ul of 5 mg/ml MTT (Thiazolyl blue) solution was added to each well and incubated for about 2 hours at 37° C. For adherent cell lines, the media was removed from each well and the resultant MTT formazan was solubilized in 100 ul of DMSO. For suspension cell lines, the MMT formazan was solubilized by direct addition of 100 ul of acidic isopropanol (0.1N HCl) to each well. The results were quantitated spectrophotometrically using a test wavelength of 570 nm and a reference wavelength of 630 nm.
# as §2
# [4] = tested on: GTL16; test: MTT viability assay, gastric cancer cell line; format: cell-based; conditions: Homo sapiens, GTL 16, 96 h
# Procedure: as §3, §2
# [5] = tested on: HSC39; test: MTT viability assay, gastric cancer cell line; format: cell-based; conditions: Homo sapiens, 96 h
# Procedure: as §3, §2
# [6] = tested on: Hs738T; test: MTT viability assay, gastric cancer cell line; format: cell-based; conditions: Homo sapiens, 96 h
# Procedure: as §3, §2
# [7] = tested on: Hs746T; test: MTT viability assay, gastric cancer cell line; format: cell-based; conditions: Homo sapiens, 96 h
# Procedure: as §3, §2
# [8] = tested on: KATO III; test: MTT viability assay, gastric cancer cell line; format: cell-based; conditions: Homo sapiens, 96 h
# Procedure: as §3, §2
# [9] = tested on: KATO II; test: MTT viability assay, gastric cancer cell line; format: cell-based; conditions: Homo sapiens, 96 h
# Procedure: as §3, §2
# [10] = tested on: MKN1; test: MTT viability assay, gastric cancer cell line; format: cell-based; conditions: Homo sapiens, MKN-1, 96 h
# Procedure: as §3, §2
# [11] = tested on: MKN28; test: MTT viability assay, gastric cancer cell line; format: cell-based; conditions: Homo sapiens, MKN-28, 96 h
# Procedure: as §3, §2
# [12] = tested on: MKN45; test: MTT viability assay, gastric cancer cell line; format: cell-based; conditions: Homo sapiens, MKN-45, 96 h
# Procedure: as §3, §2
# [13] = tested on: MKN74; test: MTT viability assay, gastric cancer cell line; format: cell-based; conditions: Homo sapiens, MKN-74, 96 h
# Procedure: as §3, §2
# [14] = tested on: MKN7; test: MTT viability assay, gastric cancer cell line; format: cell-based; conditions: Homo sapiens, MKN-7, 96 h
# Procedure: as §3, §2
# [15] = tested on: N87; test: MTT viability assay, gastric cancer cell line; format: cell-based; conditions: Homo sapiens, 96 h
# Procedure: as §3, §2
# [16] = tested on: SNU-16; test: MTT viability assay, gastric cancer cell line; format: cell-based; conditions: Homo sapiens, SNU-16, 96 h
# Procedure: as §3, §2
# [17] = tested on: SNU-1; test: MTT viability assay, gastric cancer cell line; format: cell-based; conditions: Homo sapiens, SNU1, 96 h
# Procedure: as §3, §2
# [18] = tested on: SNU-5; test: MTT viability assay, gastric cancer cell line; format: cell-based; conditions: Homo sapiens, SNU-5, 96 h
# Procedure: as §3, §2
# [19] = tested on: TMK-1; test: MTT viability assay, gastric cancer cell line; format: cell-based; conditions: Homo sapiens, TMK-1, 96 h
# Procedure: as §3, §2
# [20] = tested on: MKN45; test: Drug-sensitivity screen of 40 human cancer cell lines (DNA staining, 3 days); format: cell-based; conditions: MKN45 gastric cancer cell line
# Procedure: as §1, §2
# [21] = tested on: Amp+ cells; test: Viability of gastric cancer cell lines with MET amplification (MTT); format: cell-based, human; conditions: 5 of 5 Amp+ gastric cancer cell lines; 96 h
# [22] = tested on: Amp− cells; test: Viability of gastric cancer cell lines without MET amplification (MTT); format: cell-based, human; conditions: 12 of 12 Amp− gastric cancer cell lines; 96 h
# [23] = tested on: Amp+ cells; test: Growth curve (SYTO60 staining); format: cell-based, human; conditions: 1 μM, up to 6 days
# [24] = tested on: Amp− cells; test: Growth curve (SYTO60 staining); format: cell-based, human; conditions: 1 μM, up to 6 days
# [25] = tested on: MET autophosphorylation (Y1234/1235) in Amp+ cells; test: Immunoblotting of MET autophosphorylation; format: cell-based, human; conditions: 3 h, 50 nM
# [26] = tested on: ERK1/2, AKT, STAT3, and FAK in Amp+ cells; test: Immunoblotting of downstream effector phosphorylation; format: cell-based, human; conditions: 3 h, 50 nM
# Procedure: (§4) FIG. 3: Constitutive activation of MET and activation of downstream signaling pathways in Amp^+ cells. (FIG. 3A) MET is constitutively activated in the Amp^+ cells. […] (FIG. 3B) Effect of HGF on MET activation in Amp^+ and Amp^− cells (representative immunoblots). Cells were serum-starved for 24 h and treated with 40 ng/ml HGF for 10 minutes. Phosphorylation of MET (Y1234/1235) is unaltered in Amp^+ cells treated with HGF, but it is induced by HGF in Amp^− cells (total MET control).
# (§5) Cells are costained with DAPI to show nuclei.
# (§6) Cells were either directly lysated in 2× sample buffer or in RIPA buffer (150 mM NaCl, 50 mM Tris pH 8.0, 1% NP40, 0.5% DOC, 0.1% SDS, 1 mM EDTA, 10 mM NaF, 1 mM Na-orthovanadate, 1× protease inhibitor cocktail (Roche; Indianapolis, Ind.)). Cell lysates were sonicated for 10 sec and cleared by centrifugation at 14,000 rpm for 10 min at 4° C. Cleared lysates were boiled in sample buffer and loaded onto 10% SDS-PAGE gel. For immunoblotting analysis, proteins were transferred onto Immobilon PVDF membrane (Millipore; Bedford, Mass.) and visualized with Western Lightning Plus chemiluminescence kit (Perkin Elmer; Boston, Mass.).
# [27] = tested on: ERK1/2, AKT, STAT3, or FAK in Amp− cells; test: as above; format: cell-based, human; conditions: 3 h
# Procedure: as §4, §5, §6
# [28] = tested on: Amp+ cells; test: Apoptosis induction assay (cleaved caspase-3, PARP cleavage); format: cell-based, human; conditions: 72 h, 1 μM (caspase-3), 500 nM (PARP)
# Procedure: as §5
# (§7) Cells were plated on coverslips in 12-well dishes and grown to approximately 75% confluency in 10% serum. […] After 72 h the cells were fixed with 4% paraformaldehyde for 20 minutes. Permeabilization with 1% NP40 for 5 minutes was followed by blocking with 3% BSA for 30 minutes. The coverslips were then incubated overnight at 4° C. with cleaved caspase-3 antibody at 1:200 dilution. The next day, the coverslips were washed 3 times with PBS and incubated with a secondary antibody (goat anti-rabbit FITC-conjugated) for 1 h at 1:250 dilution. Following 5 washes with PBS, coverslips were mounted in Vectashield mounting medium containing DAPI (Vector Laboratories; Burlingame, Calif.).
# (§8) Apoptosis Induction Assay. […] After 72 h, cells were fixed with 4% paraformaldehyde for 20 min, permeabilized by using 1% Nonidet P-40 for 5 min, and blocked with 3% BSA for 30 min. The coverslips were then incubated overnight at 4° C. with cleaved caspase-3 antibody at 1:200 dilution. The next day, the coverslips were washed three times with PBS and incubated with a secondary antibody (goat anti-rabbit FITC-conjugated) for 1 h at 1:250 dilution. After five washes with PBS, coverslips were mounted in Vectashield mounting medium containing DAPI (Vector Laboratories), and staining was visualized by fluorescent microscopy.
# [29] = tested on: Amp− cells; test: as above; format: cell-based, human; conditions: 72 h, identical conditions
# Procedure: as §5, §7, §8
# [30] = tested on: platelet-derived growth factor receptor; conditions: cited from earlier work
# [31] = target: MET (Homo sapiens, UniProt P08581); conditions: nanomolar concentrations; cited from earlier work
# MET, sequence (P08581 25-1390): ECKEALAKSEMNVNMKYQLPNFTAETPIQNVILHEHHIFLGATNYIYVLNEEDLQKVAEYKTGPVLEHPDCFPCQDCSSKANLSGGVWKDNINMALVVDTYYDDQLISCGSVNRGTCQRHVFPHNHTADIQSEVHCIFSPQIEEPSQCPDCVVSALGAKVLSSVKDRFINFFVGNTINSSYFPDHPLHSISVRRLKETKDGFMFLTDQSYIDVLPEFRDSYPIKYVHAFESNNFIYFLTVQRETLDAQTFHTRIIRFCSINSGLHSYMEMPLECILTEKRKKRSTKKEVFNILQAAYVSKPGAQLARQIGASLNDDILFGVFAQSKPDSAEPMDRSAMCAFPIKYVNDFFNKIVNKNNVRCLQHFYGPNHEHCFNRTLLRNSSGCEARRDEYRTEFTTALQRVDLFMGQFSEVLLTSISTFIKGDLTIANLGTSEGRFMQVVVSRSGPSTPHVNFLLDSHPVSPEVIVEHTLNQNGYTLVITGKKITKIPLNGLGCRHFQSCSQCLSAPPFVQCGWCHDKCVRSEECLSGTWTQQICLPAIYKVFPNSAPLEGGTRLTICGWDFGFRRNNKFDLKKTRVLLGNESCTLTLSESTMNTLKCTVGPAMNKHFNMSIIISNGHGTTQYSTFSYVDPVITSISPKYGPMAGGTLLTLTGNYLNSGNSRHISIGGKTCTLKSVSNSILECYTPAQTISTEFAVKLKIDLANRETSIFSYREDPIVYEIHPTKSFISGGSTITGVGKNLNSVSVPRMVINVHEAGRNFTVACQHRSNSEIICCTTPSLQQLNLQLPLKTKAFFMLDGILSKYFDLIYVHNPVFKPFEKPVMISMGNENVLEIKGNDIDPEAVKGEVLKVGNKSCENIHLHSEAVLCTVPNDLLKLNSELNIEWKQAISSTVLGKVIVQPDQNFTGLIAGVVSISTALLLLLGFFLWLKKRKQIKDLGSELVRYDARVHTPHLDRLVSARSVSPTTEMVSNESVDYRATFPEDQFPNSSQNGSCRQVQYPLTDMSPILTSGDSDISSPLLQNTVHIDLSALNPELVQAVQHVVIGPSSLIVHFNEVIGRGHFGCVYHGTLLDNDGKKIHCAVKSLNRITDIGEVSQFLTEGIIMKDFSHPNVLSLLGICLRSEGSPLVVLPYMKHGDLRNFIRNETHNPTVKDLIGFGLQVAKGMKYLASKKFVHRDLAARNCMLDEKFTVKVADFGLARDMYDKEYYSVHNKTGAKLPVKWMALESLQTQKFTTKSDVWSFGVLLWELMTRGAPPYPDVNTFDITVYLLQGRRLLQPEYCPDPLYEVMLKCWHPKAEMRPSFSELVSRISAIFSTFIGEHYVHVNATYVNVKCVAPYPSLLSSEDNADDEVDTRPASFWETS
# [32] = tested on: MLP-29 cells; conditions: cited from earlier work
# [33] = tested on: GTL-16 gastric carcinoma cells; conditions: cited from earlier work
# [34] = tested on: NIH3T3 fibroblasts; conditions: cited from earlier work
smiles,measurement,setting,value
COc1cc2ncnc(Nc3ccc(F)c(Cl)c3)c2cc1OCCCN1CCOCC1 [gefitinib],Extreme sensitivity (drug concentration),[1],100 nM
same,drug sensitivity,[2],relatively resistant
"Cc1[nH]c(/C=C2\C(=O)Nc3ccc(S(=O)(=O)Cc4c(Cl)cccc4Cl)cc32)c(C)c1C(=O)N1CCC[C@@H]1CN1CCCC1 [PHA-665752, (3Z)-5-[(2,6-dichlorobenzyl)sulfonyl]-3-[(3,5-dimethyl-4-{[(2R)-2-(pyrrolidin-1-ylmethyl)pyrrolidin-1-yl]carbonyl}-1H-pyrrol-2-yl)methylene]-1,3-dihydro-2H-indol-2-one]",viability at 0.5 µM,[3],99.8 ± 1.9%
same,viability at 0.5 µM,[4],12.8 ± 1.2%
same,viability at 0.5 µM,[5],92.8 ± 2.1%
same,viability at 0.5 µM,[6],100 ± 12.3%
same,viability at 0.5 µM,[7],38.4 ± 1.2%
same,viability at 0.5 µM,[8],105 ± 9.5%
same,viability at 0.5 µM,[9],3.2 ± 0.3%
same,viability at 0.5 µM,[10],87.5 ± 4%
same,viability at 0.5 µM,[11],104 ± 4.2%
same,viability at 0.5 µM,[12],5.8 ± 0.5%
same,viability at 0.5 µM,[13],89.6 ± 2.6%
same,viability at 0.5 µM,[14],118 ± 21.1%
same,viability at 0.5 µM,[15],86 ± 7.4%
same,viability at 0.5 µM,[16],99.9 ± 1.5%
same,viability at 0.5 µM,[17],101 ± 3.2%
same,viability at 0.5 µM,[18],4 ± 0.2%
same,viability at 0.5 µM,[19],91.3 ± 2.1%
same,Extreme sensitivity (drug concentration),[20],100 nM
same,effect on number of viable cells,[21],dramatic decrease in the number of viable cells; also recorded: dramatic reduction in cell numbers
same,effect on number of viable cells / proliferation,[22],resistant; also recorded: no effect
same,effect on proliferation as a function of time,[23],"initial arrest in proliferation, followed by cell death"
same,effect on proliferation rate as a function of time,[24],unaffected
same,constitutive MET autophosphorylation,[25],effectively suppressed the constitutive MET autophosphorylation
same,"baseline phosphorylation of downstream effectors ERK1/2, AKT, STAT3, FAK",[26],effectively abrogated the baseline phosphorylation
same,"baseline phosphorylation of ERK1/2, AKT, STAT3, FAK",[27],no effect on baseline phosphorylation
same,induction of apoptosis,[28],induction of apoptosis; also recorded: demonstrated apoptosis
same,induction of apoptosis,[29],not in Amp− cells
same,IC50,[30],> 10 µM
COC(=O)[C@@]1(O)C[C@H]2O[C@]1(C)n1c3ccccc3c3c4c(c5c6ccccc6n2c5c31)C(=O)NC4 [K252a],Met autophosphorylation,[31],inhibits Met autophosphorylation
same,HGF-mediated scattering,[32],prevents HGF-mediated scattering
same,Met-driven proliferation,[33],reduces Met-driven proliferation
same,Met mediated transformation,[34],reverses Met mediated transformation
